# Laboratory results taken from ChEMBL document CHEMBL1151433, “National and regional assessment of antimicrobial resistance among community-acquired respiratory tract pathogens identified in a 2005-2006 U.S. Faropenem surveillance study” (2007).
# Columns and labels:
# [1] = system: Streptococcus pneumoniae; test: Antibacterial activity against Streptococcus pneumoniae ATCC 49619 isolated from respiratory tract infected patients with 6 to 14 years of age after 20 to 24 hrs by broth microdilution method; type: functional
# [2] = system: Streptococcus pneumoniae; test: Antibacterial activity against Streptococcus pneumoniae ATCC 49619 isolated from respiratory tract infected patients within 2 years of age after 20 to 24 hrs by broth microdilution method; type: functional
# [3] = system: Streptococcus pneumoniae; test: Antibacterial activity against Streptococcus pneumoniae ATCC 49619 isolated from respiratory tract infected patients assessed as susceptible isolates after 20 to 24 hrs by broth microdilution method; type: functional
# [4] = system: Streptococcus pneumoniae; test: Antibacterial activity against Streptococcus pneumoniae ATCC 49619 isolated from respiratory tract infected patients with 3 to 5 years of age after 20 to 24 hrs by broth microdilution method; type: functional
# [5] = system: Streptococcus pneumoniae; test: Antibacterial activity against Streptococcus pneumoniae ATCC 49619 isolated from respiratory tract infected outpatients after 20 to 24 hrs by broth microdilution method; type: functional
# [6] = system: Streptococcus pneumoniae; test: Antibacterial activity against penicillin-resistant Streptococcus pneumoniae ATCC 49619 isolated from respiratory tract infected patients after 20 to 24 hrs by broth microdilution method; type: functional
# [7] = system: Streptococcus pneumoniae; test: Antibacterial activity against penicillin-resistant Streptococcus pneumoniae ATCC 49619 isolated from respiratory tract infected patients assessed as susceptible isolates after 20 to 24 hrs by broth microdilution method; type: functional
# [8] = system: Streptococcus pneumoniae; test: Antibacterial activity against Streptococcus pneumoniae ATCC 49619 isolated from respiratory tract infected patients within 2 years of age assessed as resistant isolates after 20 to 24 hrs by broth microdilution method; type: functional
# [9] = system: Streptococcus pneumoniae; test: Antibacterial activity against Streptococcus pneumoniae ATCC 49619 isolated from respiratory tract infected male patients assessed as resistant isolates after 20 to 24 hrs by broth microdilution method; type: functional
# [10] = system: Streptococcus pneumoniae; test: Antibacterial activity against penicillin-resistant Streptococcus pneumoniae ATCC 49619 isolated from respiratory tract infected patients assessed as resistant isolates after 20 to 24 hrs by broth microdilution method; type: functional
# [11] = system: Streptococcus pneumoniae; test: Antibacterial activity against penicillin-intermediate Streptococcus pneumoniae ATCC 49619 isolated from respiratory tract infected patients assessed as susceptible isolates after 20 to 24 hrs by broth microdilution method; type: functional
# [12] = system: Streptococcus pneumoniae; test: Antibacterial activity against penicillin-susceptible Streptococcus pneumoniae ATCC 49619 isolated from respiratory tract infected patients assessed as susceptible isolates after 20 to 24 hrs by broth microdilution method; type: functional
# [13] = system: Streptococcus pneumoniae; test: Antibacterial activity against penicillin-susceptible Streptococcus pneumoniae ATCC 49619 isolated from respiratory tract infected patients after 20 to 24 hrs by broth microdilution method; type: functional
# [14] = system: Streptococcus pneumoniae; test: Antibacterial activity against Streptococcus pneumoniae ATCC 49619 isolated from respiratory tract infected male patients after 20 to 24 hrs by broth microdilution method; type: functional
# [15] = system: Streptococcus pneumoniae; test: Antibacterial activity against penicillin-intermediate Streptococcus pneumoniae ATCC 49619 isolated from respiratory tract infected patients assessed as resistant isolates after 20 to 24 hrs by broth microdilution method; type: functional
# [16] = system: Streptococcus pneumoniae; test: Antibacterial activity against Streptococcus pneumoniae ATCC 49619 isolated from respiratory tract infected patients assessed as resistant isolates after 20 to 24 hrs by broth microdilution method; type: functional
# [17] = system: Streptococcus pneumoniae; test: Antibacterial activity against Streptococcus pneumoniae ATCC 49619 isolated from respiratory tract infected patients with 3 to 5 years of age assessed as resistant isolates after 20 to 24 hrs by broth microdilution method; type: functional
# [18] = system: Streptococcus pneumoniae; test: Antibacterial activity against Streptococcus pneumoniae ATCC 49619 isolated from respiratory tract infected patients with 15 to 64 years of age after 20 to 24 hrs by broth microdilution method; type: functional
# [19] = system: Streptococcus pneumoniae; test: Antibacterial activity against Streptococcus pneumoniae ATCC 49619 isolated from respiratory tract infected outpatients assessed as resistant isolates after 20 to 24 hrs by broth microdilution method; type: functional
# [20] = system: Streptococcus pneumoniae; test: Antibacterial activity against Streptococcus pneumoniae ATCC 49619 isolated from respiratory tract infected patients more than 65 years of age assessed as resistant isolates after 20 to 24 hrs by broth microdilution method; type: functional
# [21] = system: Streptococcus pneumoniae; test: Antibacterial activity against Streptococcus pneumoniae ATCC 49619 isolated from respiratory tract infected inpatients assessed as resistant isolates after 20 to 24 hrs by broth microdilution method; type: functional
# [22] = system: Streptococcus pneumoniae; test: Antibacterial activity against Streptococcus pneumoniae ATCC 49619 isolated from respiratory tract infected patients with 6 to 14 years of age assessed as resistant isolates after 20 to 24 hrs by broth microdilution method; type: functional
# [23] = system: Streptococcus pneumoniae; test: Antibacterial activity against Streptococcus pneumoniae ATCC 49619 isolated from respiratory tract infected patients more than 65 years of age after 20 to 24 hrs by broth microdilution method; type: functional
# [24] = system: Haemophilus influenzae; test: Antibacterial activity against beta lactamase-positive Haemophilus influenzae […] isolated from respiratory tract infected patients assessed as susceptible isolates after 20 to 24 hrs by broth microdilution method; type: functional, ATCC 49247
# [25] = system: Haemophilus influenzae; test: Antibacterial activity against beta lactamase-negative Haemophilus influenzae […] isolated from respiratory tract infected patients assessed as susceptible isolates after 20 to 24 hrs by broth microdilution method; type: functional
# [26] = system: Streptococcus pneumoniae; test: Antibacterial activity against Streptococcus pneumoniae ATCC 49619 isolated from respiratory tract infected patients with 15 to 64 years of age assessed as resistant isolates after 20 to 24 hrs by broth microdilution method; type: functional
# [27] = system: Haemophilus influenzae; test: Antibacterial activity against Haemophilus influenzae […] isolated from respiratory tract infected patients after 20 to 24 hrs by broth microdilution method; type: functional; conditions: ATCC 49247
# [28] = system: Streptococcus pneumoniae; test: Antibacterial activity against Streptococcus pneumoniae ATCC 49619 isolated from respiratory tract infected inpatients after 20 to 24 hrs by broth microdilution method; type: functional
# [29] = system: Haemophilus influenzae; test: Antibacterial activity against beta lactamase-negative Haemophilus influenzae […] isolated from respiratory tract infected patients after 20 to 24 hrs by broth microdilution method; type: functional; conditions: ATCC 49247
# [30] = system: Streptococcus pneumoniae; test: Antibacterial activity against Streptococcus pneumoniae ATCC 49619 isolated from respiratory tract infected patients after 20 to 24 hrs by broth microdilution method; type: functional
# [31] = system: Moraxella catarrhalis; test: Antibacterial activity against Moraxella catarrhalis isolated from respiratory tract infected patients after 20 to 24 hrs by broth microdilution method; type: functional
# [32] = system: Streptococcus pneumoniae; test: Antibacterial activity against Streptococcus pneumoniae ATCC 49619 isolated from respiratory tract infected female patients assessed as resistant isolates after 20 to 24 hrs by broth microdilution method; type: functional
# [33] = system: Streptococcus pneumoniae; test: Antibacterial activity against penicillin-susceptible Streptococcus pneumoniae ATCC 49619 isolated from respiratory tract infected patients assessed as resistant isolates after 20 to 24 hrs by broth microdilution method; type: functional
# [34] = system: Streptococcus pneumoniae; test: Antibacterial activity against penicillin-intermediate Streptococcus pneumoniae ATCC 49619 isolated from respiratory tract infected patients after 20 to 24 hrs by broth microdilution method; type: functional
# [35] = system: Haemophilus influenzae; test: Antibacterial activity against beta lactamase-positive Haemophilus influenzae […] isolated from respiratory tract infected patients after 20 to 24 hrs by broth microdilution method; type: functional; conditions: ATCC 49247
# [36] = system: Haemophilus influenzae; test: Antibacterial activity against Haemophilus influenzae […] isolated from respiratory tract infected patients assessed as susceptible isolates after 20 to 24 hrs by broth microdilution method; type: functional, ATCC 49247
# [37] = system: Streptococcus pneumoniae; test: Antibacterial activity against Streptococcus pneumoniae ATCC 49619 isolated from respiratory tract infected female patients after 20 to 24 hrs by broth microdilution method; type: functional
smiles,measurement,setting,value
C=CC1=C(C(=O)O)N2C(=O)[C@@H](NC(=O)/C(=N\O)c3csc(N)n3)[C@H]2SC1 [CEFDINIR],MIC90,[1],8 µg/mL
same,MIC90,[2],> 8 µg/mL
same,Activity,[3],76.8%
same,MIC90,[4],> 8 µg/mL
same,MIC90,[5],8 µg/mL
same,MIC50,[6],8 µg/mL
same,Activity,[7],0%
same,Activity,[8],33.2%
same,Activity,[9],19.8%
same,Activity,[10],100%
same,Activity,[11],67.5%
same,Activity,[12],99.9%
same,MIC50,[13],≤ 0.06 µg/mL
same,MIC90,[13],0.12 µg/mL
same,MIC90,[14],8 µg/mL
same,Activity,[15],14.8%
same,Activity,[16],19.2%
same,Activity,[17],23.2%
same,MIC90,[18],4 µg/mL
same,Activity,[19],19.6%
same,Activity,[20],15.8%
same,Activity,[21],18.8%
same,Activity,[22],19.8%
same,MIC90,[23],4 µg/mL
same,Activity,[24],94.4%
same,Activity,[25],95%
same,Activity,[26],15.4%
same,% susceptible,[27],1%
same,MIC50,[27],0.25 µg/mL
same,MIC90,[28],8 µg/mL
same,% susceptible,[29],1%
same,MIC50,[29],0.25 µg/mL
same,MIC50,[30],0.12 µg/mL
same,MIC90,[30],8 µg/mL
same,MIC50,[31],0.25 µg/mL
same,MIC90,[31],0.5 µg/mL
same,Activity,[32],18.3%
same,Activity,[33],0%
same,MIC50,[34],0.25 µg/mL
same,MIC90,[34],2 µg/mL
same,% susceptible,[35],1%
same,MIC50,[35],0.25 µg/mL
same,Activity,[36],94.8%
same,MIC90,[37],8 µg/mL
C[C@@H](O)[C@H]1C(=O)N2C(C(=O)O)=C(S[C@@H]3CN[C@H](C(=O)N(C)C)C3)[C@H](C)[C@H]12 [MEROPENEM],Activity,[3],83.2%
same,MIC50,[6],1 µg/mL
same,MIC90,[6],1 µg/mL
same,Activity,[7],4.5%
same,Activity,[10],59.5%
same,Activity,[11],93.2%
same,Activity,[12],100%
same,MIC50,[13],0.015 µg/mL
same,MIC90,[13],0.015 µg/mL
same,Activity,[15],0%
same,Activity,[16],9.5%
same,Activity,[24],100%
same,Activity,[25],99.6%
same,MIC50,[27],0.03 µg/mL
same,MIC90,[27],0.12 µg/mL
same,MIC50,[29],0.06 µg/mL
same,MIC90,[29],0.12 µg/mL
same,MIC50,[30],0.015 µg/mL
same,MIC90,[30],0.5 µg/mL
same,MIC50,[31],≤ 0.004 µg/mL
same,MIC90,[31],0.008 µg/mL
same,Activity,[33],0%
same,MIC50,[34],0.06 µg/mL
same,MIC90,[34],0.25 µg/mL
same,MIC50,[35],0.03 µg/mL
same,MIC90,[35],0.06 µg/mL
same,Activity,[36],99.7%
C[C@@H](O)[C@H]1C(=O)N2C(C(=O)O)=C([C@H]3CCCO3)S[C@H]12 [FAROPENEM],MIC90,[1],0.5 µg/mL
same,MIC90,[2],1 µg/mL
same,MIC90,[4],1 µg/mL
same,MIC90,[5],0.5 µg/mL
same,MIC50,[6],1 µg/mL
same,MIC90,[6],2 µg/mL
same,MIC50,[13],0.008 µg/mL
same,MIC90,[13],0.015 µg/mL
same,MIC90,[14],0.5 µg/mL
same,MIC90,[18],0.5 µg/mL
same,MIC90,[23],0.5 µg/mL
same,MIC90,[28],0.5 µg/mL
same,MIC50,[30],0.015 µg/mL
same,MIC90,[30],0.5 µg/mL
same,MIC50,[31],0.25 µg/mL
same,MIC90,[31],0.5 µg/mL
same,MIC50,[34],0.06 µg/mL
same,MIC90,[34],0.25 µg/mL
same,MIC90,[37],0.5 µg/mL
